Measured values reported in patent publication US20250093330A1, “METHOD AND DEVICE FOR DRUG SCREENING” (SHANGHAI LIDE BIOTECH CO., LTD., priority 2021, published 2025).
Entries after “also recorded” stand apart in the source; their conditions may differ.

Experiments:
Assay type in all cases: in vivo, human (patient-derived), mouse host
[1] = system: primary duodenal cancer cells; test: method of the present invention, drug screening on primary duodenal cancer cells from a patient; conditions: primary tumor tissue of duodenal ampullary tumor patient, FIG. 9
Source text: 4 to 5-week old female Nu/Nu mice was ordered from the supplier (purchased from Beijing Vital River Laboratory Animal Technology Co., Ltd.) and raised in SPF grade animal room. Before the experiment, the animal was adapted for at least three days. Freshly collected tumor samples obtained from surgery or from mouse PDX models containing tumor cells from patient were kept in a storage tube and transported to the laboratory on ice in the shortest possible time. After removing the non-tumor tissues and necrotic tissues in the biosafety cabinet, the tumor samples were cut into cubes of 1-3 mm^2, rinsed with HBSS. […] Collected cell suspension and centrifuged the suspension at 1000 rpm for 3 minutes to remove supernatant, and re-suspended in PBS containing 1% PBS; counted cell numbers and adjusted cell density to 1×10^8/ml. […] Counted the number of cells, and adjusted the cell density to 1-10×10^5/ml. […] 5-14 day after administration, the mice were killed and cell viability was detected by quantitative analysis of ATP by CellTiter-Glo luminescence in the modified polyvinylidene fluoride tubes. According to the viability of tumor cells in the control group, the percentages of cell viable proliferation (t/c %) in the experiment groups were calculated, and then the efficacy of the corresponding drugs was evaluated. […] The viability of the tumor cells was measured.

[2] = system: patient-derived gastric cancer cells in GAPF155; test: method of the present invention (implanted PVDF tube, CellTiter-Glo ATP viability), GAPF155 cells; conditions: FIG. 3
Protocol: (§1) The viability of the tumor cells was measured. Mouse PDX model GAPF155 was obtained by implanting primary gastric cancer cells into mice. After 2 months of feeding, patient-derived gastric cancer cells were obtained from GAPF155. The sensitivity of the patient-derived gastric cancer cells in GAPF155 to S-1 was detected by the traditional PDX method and the method of the present invention (FIG. 2 and FIG. 3).

[3] = system: patient-derived gastric cancer cells from GAPF157; test: traditional PDX method, mouse PDX model GAPF157; conditions: FIG. 4
Source text: (§2) The PDX model well maintains the biological characteristics the of primary tumor cells of a patient. The model is obtained by transplanting a fresh tumor tissue of a patient into an immune deficient mouse (e.g. a nude mouse or a severe combined immune deficiency (SCID) mouse). Such models maintain the genetic characteristics of the patient as well as tumor heterogeneity. Presently, the major difficulty of using PDX model for individualized precision medical treatment is the lengthy time period spent on modelling and sensitivity test, and the low success rate for modelling. For example, primary cell transplantation takes 2-3 months, and the drug sensitivity test takes 3-4 months. In addition, PDX modelling requires a high level of technical skills. Surgeons, histologists and researchers need to cooperate closely after the tumor sample is obtained from the patient. Therefore, how to improve the method for determining the sensitivity of tumor cells to an anti-tumor drug by using a PDX model becomes an urgent issue. The method for PDX mouse modelling is known in the art. […] The sensitivity of the patient-derived gastric cancer cells in GAPF155 to S-1 was detected by the traditional PDX method and the method of the present invention (FIG. 4 and FIG. 5).

[4] = system: patient-derived gastric cancer cells from GAPF157; test: method of the present invention (implanted PVDF tube, CellTiter-Glo ATP viability), GAPF157 cells; conditions: FIG. 5
Protocol: as §1, with “model […]” for “model GAPF155”, “from GAPF157.” for “from GAPF155.”, “(FIG. 4” for “(FIG. 2”, “FIG. 5).” for “FIG. 3).”

[5] = system: patient-derived gastric cancer cells in GAPF155; test: traditional PDX method, mouse PDX model GAPF155; conditions: FIG. 2
Source text: as §2, with “(FIG. 2” for “(FIG. 4”, “FIG. 3).” for “FIG. 5).”

| Compound | response to drug in drug screening [1] | sensitivity of the tumor cells to the drug / anti-tumor activity [2] | sensitivity of the tumor cells to the drug / anti-tumor activity [3] | sensitivity of the tumor cells to the drug / anti-tumor activity [4] | sensitivity of the tumor cells to the drug / anti-tumor activity [5] |
| --- | --- | --- | --- | --- | --- |
| Nc1ccn([C@@H]2O[C@H](CO)[C@@H](O)C2(F)F)c(=O)n1 [gemcitabine] | well responded | – | – | – | – |
| Tegafur [S-1] | – | sensitive; also recorded: good anti-tumor activity | sensitive; also recorded: good anti-tumor activity | sensitive; also recorded: good anti-tumor activity | sensitive; also recorded: good anti-tumor activity |
